# Experimental data published in patent US10882833B2, “Phenylate derivative, preparation method therefor, and pharmaceutical composition and uses thereof” (Institute of Materia Medica, Chinese Academy of Medical …, priority 2016, dated 2021).
# Structures can show the parent of a compound that is named as a salt.
# Target: interaction between PD-1 and PD-L1 (Homo sapiens (Human), UniProt Q9NZQ7)
# Test: Cisbio PD-1/PD-L1 binding assay kit (HTRF)
# Conditions: 8-10 concentrations, read-out: IC50, inhibitory activity at molecular level on the interaction between PD-1 and PD-L1
# From the text: • 1. In vitro activity evaluation: Cisbio PD-1/PD-L1 binding assay kit was applied for the detection method of in vitro enzymology level. Screening Principles and Methods of PD-1/PD-L1 Small Molecule Inhibitors • 1) Principle: PD-1 protein is with HIS tag, and PD-1 ligand PD-L1 is with hFc tag. Eu labeled anti-hFc antibody and XL665 labeled anti-HIS antibody are combined with the above two label proteins respectively. After laser excitation, energy can be transferred from donor Eu to receptor XL665, allowing XL665 to glow. […] Reagents should be dispensed in the following order. For 384-well white ELISA plate, 2 μl of diluent or target compound diluted with diluent was added to each well, and then 4 μl of PD-1 protein and 4 μl of PD-L1 protein were added per well, incubated for 15 min at room temperature; and 10 μl of a mixture of anti-Tag1-Eu3+ and anti-Tag2-XL665 was added per well and incubated for 1 h to 4 h at room temperature and the fluorescence signals at 665 nm and 620 nm were measured with an Envison instrument. HTRF rate=(665 nm/620 nm)*10^4. 8-10 concentrations were detected for each compound and IC50 was calculated by Graphpad software. • 3) The results of the screening were shown in Table 1.
# Chain of interaction between PD-1 and PD-L1 (Q9NZQ7 19-238): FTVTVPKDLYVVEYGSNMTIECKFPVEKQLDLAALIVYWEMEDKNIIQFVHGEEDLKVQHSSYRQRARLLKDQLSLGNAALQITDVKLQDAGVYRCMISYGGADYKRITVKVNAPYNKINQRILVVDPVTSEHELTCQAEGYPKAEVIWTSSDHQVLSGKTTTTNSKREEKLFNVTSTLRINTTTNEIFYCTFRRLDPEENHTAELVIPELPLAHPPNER
row,Compound,IC50 [nM]
1,"NC(=O)[C@H](CO)NCc1cc(Cl)c(OCc2cccc(-c3ccccc3)c2Br)cc1OCC1CC1 (stereo in doubt) [Example 9, 2-(4-(2-bromo-3-phenylbenzyloxy)-5-chloro-2-(cyclopropylmethoxy)benzylamino)-3-hydroxypropanamide]",81.6
2,"C=CCOc1cc(OCc2cccc(-c3ccccc3)c2Br)c(Cl)cc1CNCCNC(C)=O [Example 3, N-acetylaminoethyl-4-(2-bromo-3-phenylbenzyloxy)-5-chloro-2-allyloxy benzylamine]",126
3,"C[C@@H](O)[C@H](NCc1cc(Cl)c(OCc2cccc(-c3ccccc3)c2Br)cc1OCC1CC1)C(=O)O [Example 8, N-(4-(2-bromo-3-phenylbenzyloxy)-5-chloro-2-(cyclopropylmethoxy)benzyl)threonine]",10.2
4,"NC(=O)NCCC[C@H](NCc1cc(Cl)c(OCc2cccc(-c3ccccc3)c2Br)cc1OCC1CC1)C(=O)O [Example 11, N-(4-(2-bromo-3-phenylbenzyloxy)-5-chloro-2-(cyclopropylmethoxy)benzyl)Citrulline]",1410
5,"CON(C)C(=O)COc1cc(OCc2cccc(-c3ccccc3)c2Br)c(Cl)cc1CN[C@@H](CO)C(=O)O [Example 12, N-(4-(2-bromo-3-phenylbenzyloxy)-5-chloro-2-(N-methoxy-N-methylcarbamoylmethoxy)benzyl)serine]",191
6,"O=C(O)[C@H](CO)NCc1cc(Cl)c(OCc2cccc(-c3ccccc3)c2Br)cc1OCC1CC1 [Example 14, (S)—N-(4-(2-bromo-3-phenylbenzyloxy)-5-chloro-2-(cyclopropylmethoxy)benzyl)serine]",41.7

# Now from value to compound:
row,IC50 [nM],Compound
1,1800,"C#CCOc1cc(OCc2cccc(-c3ccccc3)c2Br)c(Cl)cc1CNCCNC(C)=O [Example 4, N-acetylaminoethyl-4-(2-bromo-3-phenylbenzyloxy)-5-chloro-2-(prop-2-ynyloxy)benzylamine]"
2,1150,"CC(=O)NCCNCc1cc(Cl)c(OCc2cccc(-c3ccccc3)c2Br)cc1OCC1CC1 [Example 5, N-acetylaminoethyl-4-(2-bromo-3-phenylbenzyloxy)-5-chloro-2-(cyclopropylmethoxy)benzylamine]"
3,1000,"CC(=O)NCCNCc1cc(Cl)c(OCc2cccc(-c3ccccc3)c2Br)cc1OCC1CC1 [Example 10, N-acetylaminoethyl-4-(2-bromo-3-phenylbenzyloxy)-5-chloro-2-(cyclopropylmethoxy)benzylamine]"
4,732,"COc1cc(OCc2cccc(-c3ccccc3)c2Br)c(Cl)cc1CNCCNC(C)=O [Example 2, N-acetylaminoethyl-4-(2-bromo-3-phenylbenzyloxy)-5-chloro-2-methoxy benzylamine hydrochloride]"
5,312,"NC(=O)COc1cc(OCc2cccc(-c3ccccc3)c2Br)c(Cl)cc1CN[C@@H](CO)C(=O)O [Example 1, (S)—N-(4-(2-bromo-3-phenylbenzyloxy)-5-chloro-2-(carbamoylmethoxy)benzyl)serine]"
6,183,"O=C(COc1cc(OCc2cccc(-c3ccccc3)c2Br)c(Cl)cc1CN1CCCC[C@H]1C(=O)O)NO [Example 15, (S)—N-(4-(2-bromo-3-phenylbenzyloxy)-5-chloro-2-(N-hydroxycarbamoylmethoxy)benzyl)Pipecolinic Acid]"
7,42.5,CN(C)C(=O)COc1cc(OCc2cccc(-c3ccccc3)c2Br)c(Cl)cc1CNC(CO)C(=O)O (stereo not shown) [Example 6]
8,41.3,"O=C(O)[C@H](CO)NCc1cc(Cl)c(OCc2cccc(-c3ccccc3)c2Br)cc1OCC(=O)N1CCOCC1 [Example 13, N-(4-(2-bromo-3-phenylbenzyloxy)-5-chloro-2-(2-morpholino-2-oxoethoxy)benzyl)serine]"
9,40.5,"O=C(O)[C@@H]1C[C@H](O)CN1Cc1cc(Cl)c(OCc2cccc(-c3ccc4c(c3)OCCO4)c2Br)cc1OCC1CC1 [Example 17, (S,S)—N-(4-(2-bromo-3-(2,3-dihydrobenzo[b][1,4]dioxin-6-yl)benzyloxy)-5-chloro-2-(cyclopropylmethoxy)benzyl)-4-hydroxyproline]"

# System: pleural mesothelioma (PM)
# Test: not given
# Conditions: 25 patients with pleural mesothelioma; cited from earlier work
Compound,disease control rate [%],overall response rate (ORR) [%]
pembrolizumab [Keytruda],76,28

# System: advanced Hodgkin's lymphoma (HL)
# Test: not given
# Conditions: patients with no treatment response to any approved drug; cited from earlier work
row,Compound,treatment outcome in advanced Hodgkin's lymphoma
1,nivolumab [Opdvio],complete remission
2,pembrolizumab [Keytruda],complete remission
